According to US20240293566A1, “ANTI-EGFRvIII ANTIBODY DRUG CONJUGATES AND USES THEREOF” (Regeneron Pharmaceuticals, Inc., priority 2021, published 2024):

Experiments:
[1] = system: U251MG/hEGFRvIII in coculture; assay: Bystander killing assay, 1:1 coculture, far red positive population; assay type: cell-based, human; settings: 6 days
Protocol: Bystander killing by an ADC can take place when the cytotoxic payload is released from the target cells and is then taken up by surrounding antigen-negative (bystander) cells. […] Cells were subsequently treated with 3 ug/mL of Hoechst 33342 nuclear stain (ThermoFisher, #H3570) while being fixed with 4% formaldehyde (ThermoFisher, #28908). Images were acquired on the Opera Phenix Microscope (PerkinELmer). All cells were identified by the Hoechst-labeled nuclei and cell counts were separated into far red positive U251 MG/hEGFRvIII cells (U251 in coculture) and far red negative parental U251 MG cell populations via Harmony image analysis software (PerkinELmer). Cell viability was determined separately for each cell population and expressed as a percentage of the untreated (100% viable) cells.

U251 MG/hEGFRvIII cells = assay: In vitro cytotoxicity (nuclear counts after 6-day treatment), mono-culture; assay type: cell-based, human
Description: (§1) To determine the relative cell-killing potency of anti-EGFRvIII antibody drug conjugates of the invention, cell-killing assays were run on a cell line expressing human EGFRvIII. To develop the cell line, Lipofectamine LTX with Plus Reagent was used to generate U251 cells (Sigma, #9063001) expressing human EGFRvIII (hEGFRvIII; amino acids 1 through 380 of accession number NP_005219.2 with a deletion of amino acids 30 through 297 and creation of a junctional glycine residue, i.e. SEQ ID NO: 25) here in referred to as U251 MG/hEGFRvIII. The U251 lines were maintained in complete growth media (MEM Earle's Salts+10% FBS+1% L-glutamine/penicillin/streptomycin+1% non-essential amino acids+sodium pyruvate).
(§2) To measure the in vitro cytotoxicity of anti-EGFRvIII antibody drug conjugates, nuclear counts after a 6-day treatment with the antibody drug conjugates were assessed. […] Nuclear counts were determined via Harmony image analysis software (PerkinELmer), and cell viability was expressed as a percentage of the untreated (100% viable) cells. IC50 values were determined using a four-parameter logistic equation over a 10-point dose response curve (GraphPad Prism). The maximum % kill was also determined for each test article as follows: 100-minimum percent viability.

U251MG in coculture = assay: Bystander killing assay, 1:1 coculture, far red negative population; assay type: cell-based; settings: 6 days
Protocol: Bystander killing by an ADC can take place when the cytotoxic payload is released from the target cells and is then taken up by surrounding antigen-negative (bystander) cells. […] A 1:1 coculture of 1500 cells/well of far red labeled U251 MG/hEGFRvIII cells and 1500 cells/well unlabeled U251 MG cells were incubated with either ADC or free payload M31 at a range of concentrations (100 nM to 1.5 pM) for 6 days. Cells were subsequently treated with 3 ug/mL of Hoechst 33342 nuclear stain (ThermoFisher, #H3570) while being fixed with 4% formaldehyde (ThermoFisher, #28908). Images were acquired on the Opera Phenix Microscope (PerkinELmer). All cells were identified by the Hoechst-labeled nuclei and cell counts were separated into far red positive U251 MG/hEGFRvIII cells (U251 in coculture) and far red negative parental U251 MG cell populations via Harmony image analysis software (PerkinELmer). Cell viability was determined separately for each cell population and expressed as a percentage of the untreated (100% viable) cells.

U251 MG parental cells = assay: In vitro cytotoxicity (nuclear counts after 6-day treatment), mono-culture; assay type: cell-based
Description: as §1, §2

U251/EGFRvIII xenografts = assay: Subcutaneous U251/EGFRvIII xenograft, comparison with COMP-MMAF (Example 11); assay type: in vivo, SCID mice; settings: for Tumor growth (mm^3) from start of treatment (mean ± SD) / Tumor volume (mm^3) at termination of vehicle group (mean ± SD): Day 36 post-treatment
Protocol: For the initial xenograft study, U251/EGFRvIII tumors were established by the subcutaneous implantation of 10×10^6 cells mixed 1:1 with Matrigel on the right flank of male SCID mice. Tumors were grown to ˜175 mm^3 before treatment initiation, approximately 30 days post-implantation. Mice were randomized into groups of 8 and treated with a single dose of test or control ADCs. Tumor growth was monitored for 71 days post-treatment.

[2] = system: Orthotopically placed GBM59 GBM PDX tumors; assay: Intracranial orthotopic GBM59 PDX survival, comparison with COMP-MMAF (Example 11); assay type: in vivo, mice
Protocol: Intracranial injection was performed at 1 mm anterior and 2 mm lateral to the bregma at a depth of 3 mm. All orthotopic GBM PDX studies were conducted by Translational Drug Development Inc. Orthotopic GBM59 PDX were allowed to establish for 25 days before mice were randomized into groups of 8 and treated with a single dose of test or control ADCs. Mice were monitored for 94 days for signs of peri-morbidity and euthanized prior to reaching a moribund state.

COc1cc2c(cc1OCCCCCOc1cc3c(cc1OC)C(=O)N1C=C(C)C[C@H]1C=N3)N=C[C@@H]1CC(C)=CN1C2=O [SG3199]
% Kill (maximum) [1]: 91% | IC50 ([1]; Homo sapiens, U-251, 144 h): 10 pM | IC50 (U251 MG/hEGFRvIII cells; Homo sapiens, U-251, 144 h): 10 pM | % Kill (maximum) (U251 MG/hEGFRvIII cells; U251MG/hEGFRvIII mono-culture, 6 days): 92% | % Kill (maximum) (U251MG in coculture): 94% | IC50 (U251MG in coculture; Homo sapiens, U-251, 144 h): 7 pM | IC50 (U251 MG parental cells; Homo sapiens, U-251, 144 h): 2 pM | % Kill (maximum) (U251 MG parental cells; U251MG mono-culture, 6 days): 93%

COMP-MMAF: ABT-414 (hu806) antibody conjugated to monomethyl auristatin F (MMAF) via non-cleavable linker
Anti-tumor activity (U251/EGFRvIII xenografts; COMP-MMAF 2.5 mg/kg): Activity against tumors was seen | Anti-tumor activity (U251/EGFRvIII xenografts; COMP-MMAF 5 mg/kg, 71 days post-dosing): sustained activity similar to that resulting from treatment with REGN3124-tesirine | Tumor growth (mm^3) from start of treatment (mean ± SD) (U251/EGFRvIII xenografts; ADC dose 1 mg/kg): 423 ± 324 mm^3 | Tumor volume (mm^3) at termination of vehicle group (mean ± SD) (U251/EGFRvIII xenografts; ADC dose 1 mg/kg): 595 ± 325 mm^3 | Tumor growth (mm^3) from start of treatment (mean ± SD) (U251/EGFRvIII xenografts; ADC dose 2.5 mg/kg): 6 ± 36 mm^3 | Tumor volume (mm^3) at termination of vehicle group (mean ± SD) (U251/EGFRvIII xenografts; ADC dose 2.5 mg/kg): 183 ± 51 mm^3 | Tumor growth (mm^3) from start of treatment (mean ± SD) (U251/EGFRvIII xenografts; ADC dose 5 mg/kg): −36 ± 22 mm^3 | Tumor volume (mm^3) at termination of vehicle group (mean ± SD) (U251/EGFRvIII xenografts; ADC dose 5 mg/kg): 136 ± 16 mm^3 | Anti-tumor activity (U251/EGFRvIII xenografts; REGN3124-tesirine 0.53 mg/kg ADC (7 ug/kg PBD payload), COMP-MMAF 1 mg/kg, isotype controls all dose levels): Sustained regression was not observed | N = 8 survival at Day 94 ([2]; ADC dose 1 (mg/kg)): 0/8 | median survival ([2]; ADC dose 1 (mg/kg)): 13.5 days | N = 8 survival at Day 94 ([2]; ADC dose 5 (mg/kg), MMAF ADCs): 0/8 | median survival ([2]; ADC dose 5 (mg/kg), MMAF ADCs): 23.5 days | Effect on survival relative to the MMAF control ([2]; COMP-MMAF 5 mg/kg): some increase in survival | Time within which all mice succumbed to tumor burden ([2]; COMP-MMAF 5 mg/kg): ≤ 35 days of treatment | Effect on survival ([2]; REGN3124-tesirine DAR 1.9, 7 ug/kg payload, COMP-MMAF 1 mg/kg, controls): did not induce a significant increase in survival
